The conditions of series [1]: within and between patients; cited from earlier work.
A short description of series [2]: Food effect analysis of Test Formulation (Fasted Study vs Fed Study). The settings on record: Test Formulation single dose, least-squares geometric mean. The series is classed as in vivo, human. The method, then:
Objective: The objective of this analysis was to investigate the effect of food on the single-dose PK of Test Formulation using fasted and fed PK data from two studies, referred to as “Fasted Study” and “Fed Study,” respectively below.
Methodology. Since the PK parameters following the oral administration of Test Formulation in fasting and fed conditions were obtained from two different studies (Fasted Study and Fed Study, respectively), the PK data were analyzed using an analysis of variance (ANOVA), which considered the data as if they were collected in a parallel design.
Both studies were fully replicate studies and therefore subjects were dosed with Test Formulation on two occasions. The PK population in this analysis included subjects who received Test Formulation on two occasions; subjects who received Test Formulation only once were not included in this analysis.
In the current analysis, data from the PK population of the Fasted Study and Fed Study were considered “Reference” Treatment and “Test” Treatment, respectively.
For each parameter, the value used for the subject was the geometric mean of the two values that were available for each subject. The use of geometric means is consistent with the assumption that PK parameters are In normally distributed. Subjects with only one period of data were not included in the ANOVA, as this would incorrectly imply that singular data have the same weight as subjects with replicate values for the parameter.
In the Fasted Study, 51 subjects received Test Formulation on at least one occasion under fasting conditions, of whom 44 received Test Formulation on both occasions.
In the Fed Study, 32 subjects received Test Formulation on at least one occasion under fed conditions, of whom 27 received Test Formulation on both occasions.

The next series in a line: clinical. The settings on record: human, in vivo, 90 mg.

Consider `Cc1nc(Nc2ncc(C(=O)Nc3c(C)cccc3Cl)s2)cc(N2CCN(CCO)CC2)n1` [Dasatinib, dasatinib], for which the “coefficient of variation of AUC” value in series [1] is on record as “up to 100%”. The “coefficient of variation of Cmax” value in series [1] was “up to 100%”. Further, in series [2] (fed (n = 27)), the “AUC(0-24 h) LSmeans Fed” value is 0.413 µg·h/mL. Besides, in series [2] (human, plasma, oral, fasting (n = 44), read-out: AUC(0-24 h) LSmeans Fasted), the AUC(0-t) worked out at 0.433 µg·h/mL. The AUC(0-inf) in series [2] (human, plasma, oral, fasting (n = 44), read-out: AUC(0-∞) LSmeans Fasted) amounted to 0.446 µg·h/mL; in series [2] (human, plasma, oral, fed (n = 27), read-out: AUC(0-∞) LSmeans Fed), 0.431 µg·h/mL; in “clinical” it was 0.434 µg·h/mL. The Cmax in series [2] (human, plasma, oral, fasting (n = 44), read-out: Cmax LSmeans Fasted) worked out at 0.127 µg/mL; in series [2] (human, plasma, oral, fed (n = 27), read-out: Cmax LSmeans Fed), 0.067 µg/mL; in “clinical” it was 0.138 µg/mL.

Source of the values: patent publication US20230121325A1, “FAST DISSOLVING PHARMACEUTICAL COMPOSITIONS” (XSPRAY PHARMA AB, priority 2021, published 2023).
